From ChEMBL document CHEMBL1201862, “PubChem BioAssay data set” (2004)
Active and inactive are the calls of the source.

Assays:
[1] = P. falciparum Dd2 growth inhibitors, dose response, SYBR Green, cherry-picked samples (AID 1159567); type: functional, cell-based
Fatty acid synthase [2] = molecular target: T1, Fatty acid synthase (Homo sapiens, UniProt P49327); assay: FAS thioesterase domain inhibitors, dose response, biochemical, endpoint fluorescence intensity, uHTS hits (AID 624327); type: functional;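 further: fluorescence from hydrolysis of an O-methyl fluorescein acyl ester substrate by the enzyme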
T1 sequence (P49327 whole entry, the tested form may be a part): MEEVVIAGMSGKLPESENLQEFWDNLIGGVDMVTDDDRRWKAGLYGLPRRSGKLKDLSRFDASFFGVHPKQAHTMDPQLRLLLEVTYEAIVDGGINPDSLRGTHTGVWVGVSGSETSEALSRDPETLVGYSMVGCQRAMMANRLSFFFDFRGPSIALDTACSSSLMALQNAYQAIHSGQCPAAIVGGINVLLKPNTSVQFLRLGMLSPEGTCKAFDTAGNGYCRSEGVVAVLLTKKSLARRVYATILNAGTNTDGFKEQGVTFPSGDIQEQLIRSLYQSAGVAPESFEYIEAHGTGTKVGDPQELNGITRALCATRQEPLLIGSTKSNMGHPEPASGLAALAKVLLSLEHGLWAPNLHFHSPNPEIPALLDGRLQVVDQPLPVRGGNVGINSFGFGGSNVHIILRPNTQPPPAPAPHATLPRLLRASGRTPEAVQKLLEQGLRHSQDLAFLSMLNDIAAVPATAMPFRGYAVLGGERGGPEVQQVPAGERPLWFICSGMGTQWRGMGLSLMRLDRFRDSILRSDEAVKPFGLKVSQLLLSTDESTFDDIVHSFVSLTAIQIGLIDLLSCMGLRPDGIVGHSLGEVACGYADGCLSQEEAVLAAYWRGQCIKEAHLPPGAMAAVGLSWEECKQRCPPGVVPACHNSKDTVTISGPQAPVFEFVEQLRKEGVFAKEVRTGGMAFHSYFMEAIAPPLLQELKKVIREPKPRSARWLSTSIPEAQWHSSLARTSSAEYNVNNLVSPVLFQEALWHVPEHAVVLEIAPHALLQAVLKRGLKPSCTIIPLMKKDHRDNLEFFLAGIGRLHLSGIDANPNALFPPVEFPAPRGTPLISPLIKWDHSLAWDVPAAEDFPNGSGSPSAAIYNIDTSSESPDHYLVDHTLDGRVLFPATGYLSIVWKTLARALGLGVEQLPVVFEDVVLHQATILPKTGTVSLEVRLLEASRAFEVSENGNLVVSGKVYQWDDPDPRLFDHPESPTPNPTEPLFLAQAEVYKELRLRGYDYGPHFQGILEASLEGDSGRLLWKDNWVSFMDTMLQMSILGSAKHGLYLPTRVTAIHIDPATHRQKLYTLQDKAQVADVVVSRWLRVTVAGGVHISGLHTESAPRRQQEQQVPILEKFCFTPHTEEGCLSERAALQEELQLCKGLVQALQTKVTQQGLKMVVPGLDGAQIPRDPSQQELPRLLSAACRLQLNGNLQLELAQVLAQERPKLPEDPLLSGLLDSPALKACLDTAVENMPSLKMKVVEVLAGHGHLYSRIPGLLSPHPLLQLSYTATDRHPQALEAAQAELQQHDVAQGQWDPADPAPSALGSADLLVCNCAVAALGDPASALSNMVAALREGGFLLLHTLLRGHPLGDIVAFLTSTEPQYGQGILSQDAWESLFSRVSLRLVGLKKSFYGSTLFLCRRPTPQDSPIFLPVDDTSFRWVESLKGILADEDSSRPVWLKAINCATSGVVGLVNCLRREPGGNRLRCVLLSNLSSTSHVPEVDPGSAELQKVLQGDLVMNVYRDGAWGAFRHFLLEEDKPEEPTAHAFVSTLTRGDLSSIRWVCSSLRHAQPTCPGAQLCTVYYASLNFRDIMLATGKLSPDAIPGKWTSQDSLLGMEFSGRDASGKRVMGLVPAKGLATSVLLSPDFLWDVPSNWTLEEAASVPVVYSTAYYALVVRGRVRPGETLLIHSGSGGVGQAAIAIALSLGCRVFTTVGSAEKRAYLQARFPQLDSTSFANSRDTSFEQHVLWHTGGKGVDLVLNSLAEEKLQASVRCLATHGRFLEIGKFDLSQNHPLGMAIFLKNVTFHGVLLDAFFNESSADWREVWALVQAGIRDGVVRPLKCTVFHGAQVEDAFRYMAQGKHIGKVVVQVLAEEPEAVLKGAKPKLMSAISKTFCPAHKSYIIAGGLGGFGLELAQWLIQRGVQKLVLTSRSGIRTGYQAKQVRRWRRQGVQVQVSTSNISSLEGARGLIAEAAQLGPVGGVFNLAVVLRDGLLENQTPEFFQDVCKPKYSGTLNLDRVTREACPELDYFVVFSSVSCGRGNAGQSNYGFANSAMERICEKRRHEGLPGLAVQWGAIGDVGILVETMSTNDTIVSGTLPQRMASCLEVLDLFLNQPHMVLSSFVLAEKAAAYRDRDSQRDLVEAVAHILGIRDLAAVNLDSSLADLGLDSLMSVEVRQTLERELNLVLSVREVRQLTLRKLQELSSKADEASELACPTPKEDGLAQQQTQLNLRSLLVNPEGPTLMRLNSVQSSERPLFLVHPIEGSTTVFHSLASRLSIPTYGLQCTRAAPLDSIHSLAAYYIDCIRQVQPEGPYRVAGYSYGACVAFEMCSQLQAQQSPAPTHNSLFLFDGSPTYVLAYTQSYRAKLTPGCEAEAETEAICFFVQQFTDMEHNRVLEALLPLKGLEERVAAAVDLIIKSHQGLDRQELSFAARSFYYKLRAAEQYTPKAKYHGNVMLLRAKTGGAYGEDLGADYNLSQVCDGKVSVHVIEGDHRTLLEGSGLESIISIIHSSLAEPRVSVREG

Fatty acid synthase [3] = molecular target: T1, Fatty acid synthase; assay: FAS thioesterase domain inhibitors, dose response, biochemical, kinetic fluorescence intensity (AID 624326); type: functional;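 further: rate of fluorescence rise from hydrolysis of a fluorogenic O-methyl fluorescein ester substrate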
[4] = molecular target: T2, Carboxy-terminal domain RNA polymerase II polypeptide A small phosphatase 1 (Homo sapiens, UniProt Q9GZU7); assay: inhibitors of CTDSP1, concentration-response testing, biochemical assay, absorbance-based, actives from ultra-high-throughput screening (AID 540297); type: functional
T2 sequence (Q9GZU7 whole entry): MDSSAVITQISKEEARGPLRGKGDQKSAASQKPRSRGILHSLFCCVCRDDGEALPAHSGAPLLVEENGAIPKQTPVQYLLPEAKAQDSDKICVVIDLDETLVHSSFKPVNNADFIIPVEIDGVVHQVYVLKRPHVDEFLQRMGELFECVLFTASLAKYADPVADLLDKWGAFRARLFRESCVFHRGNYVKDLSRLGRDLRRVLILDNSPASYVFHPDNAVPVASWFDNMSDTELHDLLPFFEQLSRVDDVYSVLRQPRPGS

[5] = Luminescence Cell-Based Dose Retest to Confirm Inhibitors of Cancer Stem Cells. [Related pubchem assays (depositor defined):AID2717, AID2721]; type: functional; settings: Homo sapiens
[6] = Shn3 3'UTR reporter inhibitors, dose response, cell-based, Clone20 osteoblasts, firefly luciferase, cherry-picked (AID 624132); type: functional;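 further: firefly luciferase luminescence from reporter carrying the Shn3 3'UTR in osteoblasts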
[7] = HepG2 cell cytotoxicity, dose response, cytotoxicity control for Shn3 inhibitor project, CellTiter-Glo, cherry-picked (AID 624134); type: functional, cell-based
[8] = control 3'UTR Renilla luciferase suppression, dose response, counter-screen for Shn3 inhibitor project, cell-based, Clone20-Shn3RL, cherry-picked (AID 624133); type: functional
Cytochrome P450 3A4 = Cytochrome P450 3A4 (Homo sapiens, UniProt P08684);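 further: CYP3A4 tested as one member of a cytochrome P450 panel screen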
Cytochrome P450 3A4, sequence (P08684 whole entry): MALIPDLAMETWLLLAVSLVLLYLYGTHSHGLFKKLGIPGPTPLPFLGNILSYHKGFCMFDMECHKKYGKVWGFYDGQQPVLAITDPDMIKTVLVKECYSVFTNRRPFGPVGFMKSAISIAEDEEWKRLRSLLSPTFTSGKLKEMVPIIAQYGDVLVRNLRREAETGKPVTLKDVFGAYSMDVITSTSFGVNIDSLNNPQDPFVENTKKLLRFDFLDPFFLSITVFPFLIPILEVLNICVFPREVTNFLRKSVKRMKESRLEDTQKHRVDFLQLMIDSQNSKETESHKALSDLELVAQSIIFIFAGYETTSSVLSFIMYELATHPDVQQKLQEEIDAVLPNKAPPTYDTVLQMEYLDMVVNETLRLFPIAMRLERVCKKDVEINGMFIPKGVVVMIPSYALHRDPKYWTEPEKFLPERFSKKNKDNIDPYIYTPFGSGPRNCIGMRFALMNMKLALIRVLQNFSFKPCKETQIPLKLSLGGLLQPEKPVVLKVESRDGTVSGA

Cytochrome P450 2C9 [9] = molecular target: T3, Cytochrome P450 2C9 (Homo sapiens, UniProt P11712)
T3 sequence (P11712 whole entry): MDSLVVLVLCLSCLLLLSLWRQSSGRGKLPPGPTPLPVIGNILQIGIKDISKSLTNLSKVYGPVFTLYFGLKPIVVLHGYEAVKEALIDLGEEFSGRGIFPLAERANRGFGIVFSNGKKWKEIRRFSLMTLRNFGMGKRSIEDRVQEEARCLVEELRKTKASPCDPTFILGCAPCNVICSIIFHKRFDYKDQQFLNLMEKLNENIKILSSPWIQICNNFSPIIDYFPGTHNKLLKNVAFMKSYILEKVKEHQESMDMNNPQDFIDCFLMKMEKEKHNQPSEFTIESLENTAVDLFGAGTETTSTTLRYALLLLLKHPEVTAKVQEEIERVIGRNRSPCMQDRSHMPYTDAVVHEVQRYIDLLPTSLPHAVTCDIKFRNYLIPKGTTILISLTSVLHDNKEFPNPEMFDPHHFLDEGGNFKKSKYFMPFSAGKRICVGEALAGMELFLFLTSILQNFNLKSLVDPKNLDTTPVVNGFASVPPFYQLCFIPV

Cytochrome P450 2C19 = Cytochrome P450 2C19 (Homo sapiens, UniProt P33261); assay: Cytochrome panel assay with activity outcomes. Panel member name: p450-cyp2c19 Compounds with AC50 equal or less than 10 uM are considered active; type: functional; settings: read-out: AC50
Cytochrome P450 2C19, sequence (P33261 whole entry): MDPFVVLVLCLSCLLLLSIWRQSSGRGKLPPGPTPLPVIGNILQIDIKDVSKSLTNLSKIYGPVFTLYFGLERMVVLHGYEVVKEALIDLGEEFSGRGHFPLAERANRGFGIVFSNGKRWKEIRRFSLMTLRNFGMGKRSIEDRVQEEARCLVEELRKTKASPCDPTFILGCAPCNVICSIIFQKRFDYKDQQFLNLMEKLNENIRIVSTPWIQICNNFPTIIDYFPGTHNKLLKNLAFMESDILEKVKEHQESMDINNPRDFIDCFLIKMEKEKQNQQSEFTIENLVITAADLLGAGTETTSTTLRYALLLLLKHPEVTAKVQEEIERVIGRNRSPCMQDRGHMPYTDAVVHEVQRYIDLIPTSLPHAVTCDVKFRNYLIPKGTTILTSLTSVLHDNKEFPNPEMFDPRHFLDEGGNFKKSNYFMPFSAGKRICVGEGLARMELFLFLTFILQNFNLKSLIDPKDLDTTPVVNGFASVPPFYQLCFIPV

Cytochrome P450 1A2 = molecular target: T4, Cytochrome P450 1A2 (Homo sapiens, UniProt P05177);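 further: PubChem cytochrome P450 panel assay, CYP1A2 panel member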
T4 sequence (P05177 whole entry): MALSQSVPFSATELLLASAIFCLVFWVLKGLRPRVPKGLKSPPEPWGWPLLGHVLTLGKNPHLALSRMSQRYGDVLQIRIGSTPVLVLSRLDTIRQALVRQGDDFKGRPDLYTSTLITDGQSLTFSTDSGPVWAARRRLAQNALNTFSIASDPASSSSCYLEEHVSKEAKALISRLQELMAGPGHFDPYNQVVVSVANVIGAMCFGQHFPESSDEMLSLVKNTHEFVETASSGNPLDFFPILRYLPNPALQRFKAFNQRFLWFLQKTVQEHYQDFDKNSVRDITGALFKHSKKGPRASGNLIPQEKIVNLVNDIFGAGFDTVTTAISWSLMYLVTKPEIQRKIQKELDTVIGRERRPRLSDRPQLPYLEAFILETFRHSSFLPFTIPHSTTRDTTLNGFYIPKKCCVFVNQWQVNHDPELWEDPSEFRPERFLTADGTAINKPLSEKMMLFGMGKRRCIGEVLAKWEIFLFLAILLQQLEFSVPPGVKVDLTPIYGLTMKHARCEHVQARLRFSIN

[10] = molecular target: T5, Polyadenylate-binding protein 1 (Homo sapiens, UniProt P11940); assay: PABP1 MLLE–PAM2 interaction inhibitors, dose response, miRNA deadenylation inhibitor project, biochemical, fluorescence polarization, Cy5-PAM2 peptide, secondary (AID 602260); type: functional; settings: read-out: IC50_Mean
T5 sequence (P11940 whole entry): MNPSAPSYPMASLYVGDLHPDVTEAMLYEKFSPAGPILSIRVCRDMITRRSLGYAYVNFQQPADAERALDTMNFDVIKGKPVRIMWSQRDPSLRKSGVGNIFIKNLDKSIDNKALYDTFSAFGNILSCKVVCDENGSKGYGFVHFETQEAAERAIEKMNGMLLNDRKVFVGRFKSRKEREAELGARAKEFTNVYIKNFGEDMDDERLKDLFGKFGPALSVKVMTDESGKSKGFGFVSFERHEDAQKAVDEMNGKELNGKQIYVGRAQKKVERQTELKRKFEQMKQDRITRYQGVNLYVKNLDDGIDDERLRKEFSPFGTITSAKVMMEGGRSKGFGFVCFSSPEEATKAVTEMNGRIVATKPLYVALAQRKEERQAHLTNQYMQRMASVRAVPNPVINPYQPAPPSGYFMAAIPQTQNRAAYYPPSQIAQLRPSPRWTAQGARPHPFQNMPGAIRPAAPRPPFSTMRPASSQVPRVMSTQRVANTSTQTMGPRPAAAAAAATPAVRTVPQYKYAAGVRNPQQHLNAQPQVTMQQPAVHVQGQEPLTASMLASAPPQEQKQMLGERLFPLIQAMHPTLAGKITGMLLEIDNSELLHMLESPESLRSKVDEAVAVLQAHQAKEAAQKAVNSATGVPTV

[11] = molecular target: T5, Polyadenylate-binding protein 1; assay: PABP1 MLLE–PAM2 binding inhibitor potency, dose response, biochemical, fluorescence polarization, FITC-PAM2 peptide (AID 602259); type: functional; settings: read-out: IC50_Mean
Genome polyprotein = Genome polyprotein (dengue virus type 2, UniProt P29990); assay: Dengue-2 NS5 methyltransferase inhibitors, primary screen, biochemical, confirmation dose response (AID 588689); type: functional
Cytochrome P450 2C9 [12] = molecular target: T3, Cytochrome P450 2C9; remark: listed apart in the source
Protein RecA = molecular target: T6, Protein RecA (Mycobacterium tuberculosis, UniProt P9WHJ3); assay: Fluorescence Cell-Free Homogeneous Dose Retest to Identify Inhibitors of RecA-Intein Splicing Activity. [Related pubchem assays (depositor defined):AID2097, AID2223, AID489010, AID492950]; type: functional
T6 sequence (P9WHJ3 whole entry): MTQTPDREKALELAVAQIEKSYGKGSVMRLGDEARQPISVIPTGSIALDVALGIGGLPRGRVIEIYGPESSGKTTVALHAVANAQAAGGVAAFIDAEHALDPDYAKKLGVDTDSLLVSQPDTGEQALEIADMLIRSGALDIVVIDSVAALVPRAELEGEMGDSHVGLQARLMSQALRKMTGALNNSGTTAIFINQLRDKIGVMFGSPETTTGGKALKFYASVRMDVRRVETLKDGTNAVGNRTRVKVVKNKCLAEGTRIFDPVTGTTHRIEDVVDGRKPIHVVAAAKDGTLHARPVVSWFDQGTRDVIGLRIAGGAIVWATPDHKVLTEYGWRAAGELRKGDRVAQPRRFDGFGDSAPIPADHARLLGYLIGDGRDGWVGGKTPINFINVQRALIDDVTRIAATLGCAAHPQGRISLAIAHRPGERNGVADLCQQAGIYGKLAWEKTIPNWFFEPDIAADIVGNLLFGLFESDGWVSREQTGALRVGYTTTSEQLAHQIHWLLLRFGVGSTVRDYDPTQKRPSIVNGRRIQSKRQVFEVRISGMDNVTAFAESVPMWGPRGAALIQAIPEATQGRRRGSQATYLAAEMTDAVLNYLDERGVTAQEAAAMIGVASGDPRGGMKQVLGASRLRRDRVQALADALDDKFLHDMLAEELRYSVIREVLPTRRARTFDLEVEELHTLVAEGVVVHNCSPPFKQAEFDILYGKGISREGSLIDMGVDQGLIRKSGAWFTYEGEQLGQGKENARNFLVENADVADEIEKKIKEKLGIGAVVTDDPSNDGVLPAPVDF

Cytochrome P450 2D6 = Cytochrome P450 2D6 (Homo sapiens, UniProt P10635);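 further: CYP2D6 member of a cytochrome P450 panel assay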

COc1cccc(NC(=O)N2[C@@H](CO)[C@@H](c3ccccc3)[C@@H]2CNC(C)C)c1
AC50 [1]: 5.06 µM (active)

O=C(O)CC(NC(=O)CC(c1ccccc1)c1ccccc1)c1cccc([N+](=O)[O-])c1 (stereo not drawn)
IC50 (Fatty acid synthase [2]): 7.88 µM (active)
IC50 (Fatty acid synthase [3]): 9.88 µM (active)

O=C(Nc1ccccc1[N+](=O)[O-])OCC=Cc1ccccc1
IC50 (Fatty acid synthase [2]): 8.17 µM (active)
IC50 (Fatty acid synthase [3]): 6.3 µM (active)

COC(=O)c1ccc(/C=N/NC(=O)c2cccc(F)c2)cc1
IC50 [4]: 11.4 µM (active)

CC(C)C[C@@H](CO)N(Cc1ccccc1)S(=O)(=O)N(Cc1ccccc1)[C@@H](CO)CC(C)C
AC50 [5]: 4.21 µM (active)
AC50 [6]: 11.4 µM (active)
AC50 [7]: 21.9 µM (active)
AC50 [8]: 31 µM (active)

Cc1cccc(COCC(CC(C)C)N2CCN(C(=O)c3ccc(C(C)(C)C)cc3)CCC2=O)c1 (stereo not drawn)
IC50 (Fatty acid synthase [2]): 8.21 µM (active)
IC50 (Fatty acid synthase [3]): 6.11 µM (active)

COc1ccc(S(=O)(=O)N2CCC(C(=O)NCC3CCCO3)CC2)cc1C (stereo not drawn)
AC50 (Cytochrome P450 3A4): 15.8 µM (inconclusive)
AC50 (Cytochrome P450 2C9 [9]): inconclusive

COc1ccc(CN(C)C[C@@H]2Oc3c(NC(=O)c4ccc(-c5nccs5)cc4)cccc3C(=O)N([C@@H](C)CO)C[C@H]2C)cc1
AC50 [1]: 3.25 µM (active)

Cc1cc(C(=O)CSc2nc(N)cc(O)n2)c(C)n1-c1cccc(F)c1
AC50 [6]: 1.66 µM (active)
AC50 [7]: > 70 µM (inactive)
AC50 [8]: 26.2 µM (active)

O=c1cnc2cnc(N3CCOCC3)nc2n1C[C@H]1CCCO1
AC50 (Cytochrome P450 3A4): 15.8 µM (inconclusive)
AC50 (Cytochrome P450 2C9 [9]): inconclusive

Cc1cc(C)cc(-n2nnnc2SCC(=O)Nc2nc(-c3ccc(F)cc3)cs2)c1
AC50 (Cytochrome P450 2C19): 5.01 µM (inconclusive)
AC50 (Cytochrome P450 1A2): 3.16 µM (inconclusive)
AC50 (Cytochrome P450 2C9 [9]): inconclusive

COC(=O)CCC(=O)NNC(=O)CCCOc1ccc(Cl)cc1Cl
AC50 (Cytochrome P450 2C19): 3.55 µM (inconclusive)
AC50 (Cytochrome P450 3A4): 15.8 µM (inconclusive)
AC50 (Cytochrome P450 2C9 [9]): inconclusive

COc1cccc(-c2ccc3c(c2)[C@@H]2[C@@H](CCN2C(=O)C2CCCC2)[C@H](CO)N3)c1
AC50 [1]: 4.88 µM (active)

C=CCOc1ccc(CNC(C)(C)CO)cc1OCC.Cl
AC50 (Cytochrome P450 2C9 [9]): inconclusive

CC(=O)c1c(S)nc(-c2ccccc2)nc1NC(=O)c1ccccc1
IC50 [10]: > 66 µM (inactive)
IC50 [11]: > 66 µM (inactive)

O=C(CN1C(=O)NC2(CCCC2)C1=O)OCc1cc(=O)n2cc(Br)ccc2n1
IC50 [4]: 6.81 µM (active)

CC(C)c1ccc2c(c1)c(SC(C)(C)C)c(CC(C)(C)C(=O)O)n2Cc1ccc(Cl)cc1
AC50 [5]: 1.58 µM (active)
IC50 (Fatty acid synthase [2]): 10.1 µM (active)
IC50 (Fatty acid synthase [3]): 8.48 µM (active)

O=C1CSC(=S)N1/N=C/c1cccnc1
IC50 [10]: > 66 µM (inactive)
IC50 [11]: > 66 µM (inactive)

Cc1cc(O)c2c(c1)C(=O)[C@@]13Oc4c5c(c(O)c6c(O)cc(C)cc46)C(=O)C[C@H](O)[C@H]5[C@@H]1[C@@H](O)CC(=O)C3=C2O
IC50 (Genome polyprotein): 16.7 µM (active)

CCCCCCCC/C=C\CCCCCCCC(=O)N[C@@H](CO)Cc1ccc(O)cc1
AC50 (Cytochrome P450 2C19): 31.6 µM (inconclusive)
AC50 (Cytochrome P450 1A2): 25.1 µM (inconclusive)
AC50 (Cytochrome P450 2C9 [9]): inconclusive

COCC(=O)N1CCC2(CC1)CN(Cc1cccc(OC)c1)[C@@H](CO)c1[nH]c3cc(OC)ccc3c12
AC50 [1]: 7.42 µM (active)

O=C(O)Cn1c2ccccc2c2nnc(S)nc21
IC50 [10]: > 66 µM (inactive)
IC50 [11]: > 66 µM (inactive)

CCNc1nc(NCC)n2c(SCC(=O)Nc3ccc(F)cc3)nnc2n1
IC50 [4]: 10.3 µM (active)

c1ccc(CN=C(NCc2ccccc2)NCc2ccccc2)cc1
AC50 [6]: 1.79 µM (active)
AC50 [7]: 21.9 µM (active)
AC50 [8]: 2.06 µM (active)

CO[C@@H]1CN(C)C(=O)c2ccc(NC(=O)C3CC3)cc2OC[C@@H](C)N(Cc2ccccc2)C[C@H]1C
AC50 [1]: 3.33 µM (active)

CC(NC(=O)c1cccs1)C(S)c1ccccc1 (stereo not drawn)
IC50 [10]: > 66 µM (inactive)
IC50 [11]: > 66 µM (inactive)

O=C1Nc2cc(Cl)c(Cl)cc2N(O)N1c1ccc(Cl)c(Cl)c1
AC50 (Cytochrome P450 2C19): 28.2 µM (inconclusive)
IC50 (Fatty acid synthase [2]): 6.59 µM (active)
IC50 (Fatty acid synthase [3]): 12 µM (active)
AC50 (Cytochrome P450 3A4): 39.8 µM (inconclusive)
AC50 (Cytochrome P450 2C9 [12]): 3.98 µM (inconclusive)

CCn1c(C)c(C(C)=O)c(N2CCN(C(c3ccccc3)c3ccccc3)CC2)nc1=S
IC50 (Fatty acid synthase [2]): 8.43 µM (active)
IC50 (Fatty acid synthase [3]): 23.1 µM (inactive)

CC(C)c1ccc(NC(=O)Nc2nc(C(N)CCc3ccccc3)cs2)cc1 (stereo not drawn)
AC50 [6]: 5.36 µM (active)
AC50 [7]: 10.6 µM (active)
AC50 [8]: 10.3 µM (active)

Cc1cc(=O)oc2cc(NC(=O)c3cccc(F)c3)ccc12
IC50 [4]: 4.51 µM (active)

CN(C)Cc1ccccc1-c1cc(NC2CC2)ncn1
AC50 (Cytochrome P450 2C9 [9]): inconclusive

Cc1sc(NC(=O)CCl)c(C(=O)c2ccccc2)c1C
EC50 (Protein RecA): 3.55 µM (active)
IC50 [10]: > 66 µM (inactive)
IC50 [11]: > 66 µM (inactive)

O=C(Cc1ccccc1[N+](=O)[O-])NCc1ccccc1Cl
AC50 (Cytochrome P450 2D6): 15.8 µM (inconclusive)
AC50 (Cytochrome P450 3A4): 15.8 µM (inconclusive)
AC50 (Cytochrome P450 2C9 [9]): inconclusive

COc1ccc(C2=NN(C(=O)CSc3nc(=O)n4cc(C)ccc4n3)C(c3ccc(C)cc3)C2)cc1 (stereo not drawn)
IC50 (Fatty acid synthase [2]): 19.2 µM (active)
IC50 (Fatty acid synthase [3]): 12.9 µM (active)

C#CCOc1ccccc1/C=C1/C(=O)ON=C1C
IC50 (Genome polyprotein): > 100 µM (active)

NP(=O)(Oc1ccccc1Cl)Oc1ccccc1Cl
IC50 (Fatty acid synthase [2]): 5.09 µM (active)
IC50 (Fatty acid synthase [3]): 8.31 µM (active)
